From patent EP2077260B1, “AMIDE COMPOUND OR SALT THEREOF, AND BIOFILM FORMATION INHIBITOR, BIOFILM REMOVER AND BACTERICIDE EACH USING THE AMIDE COMPOUND OR SALT THEREOF” (The University of Tokyo, priority 2006, dated 2008)
Converted amounts (≈) assume the structure as drawn. Where two headings read alike, the source gives them in different places.

Legend:
[1] = system: Escherichia coli ATCC 25922; experiment: Evaluation test for disinfecting effect, broth dilution method CLSI(M7-A7)2006; assay type: cell-based; details: 37°C, 18 hours
Source text: (§1) The following test compounds were examined for the disinfecting activities against Pseudomonas aeruginosa, E.. Coli and staphylococcus aureus, according to a broth dilution method of "CLSI(M7-A7)2006" (Clinical and Laboratory Standards Institute, M7-A7, Methods for Dilution Antimicrobial Susceptibility Tests for Bacteria That Grow Aerobically; Approved Standard-Seventh Edition, 2006),
(§2) • Pseudomonas aeruginosa PAO1 • Pseudomonas aeruginosa ATCC 27853 • Escherichia coli ATCC 25922 • Staphylococcus aureus ATCC 29213 • Staphylococcus aureus Methicillin resistant (MRSA) ATCC 43300
(§3) Each of above-mentioned bacteria was inoculated in a TSB culture medium (Bacto TSB Broth, product of BD) for overnight cultivation at 37°C. The culture solution was applied to a TSB agar plate for about a 20-hour cultivation to form colonies. Three to five colonies were taken from the agar plate, and an average colony of them was inoculated in a 4mL TSB culture medium.. The colony was cultivated at 35°C until the number of microorganisms became 1 × 10^8 to 2 x 10^8 CFU/mL. The number of microorganisms with time was found by measuring changes in absorbency at 590nm of culture solution with time. When the turbidity became equivalent to 0.5 McFarland standard, it was determined that the number of microorganisms reached the target level = 1 × 10^8 to 2 × 10^8 CFU/mL.
(§4) The bacillus culture solution thus obtained was diluted 10-fold within 15 minutes, and a 5µL portion was inoculated in each well of an evaluation 96-well microplate. This 96-well microplate was a sterilized 96-well microplate with U-shaped bottoms (Falcon 35-3918: product of BD), and each well was filled with a 100µL portion of MH culture medium (BBL MH Broth: product of BD). Within 15 minutes after inoculation of the bacillus culture solutions, the test compounds were supplied to the well in a manner of 2-fold graded dilution. The cultivation was then carried out at 37°C for 18 hours.
(§5) The MIC was determined as follows. "S (susceptible)" indicates a concentration which caused 80% or more reduction in the diameter of the aggregation deposited in the bottom of the well, compared to when the test liquid is not used. "R (Resistant)" indicates a concentration that caused less than 80% reduction in diameter. The reduction was measured visually.. "I(Intermediate)" indicates a concentration that cannot be measured visually

[2] = system: Pseudomonas aeruginosa ATCC 27853; experiment: as above; assay type: cell-based; details: 37°C, 18 hours
Source text: as §1, §2, §3, §4, §5

[3] = system: Pseudomonas aeruginosa PAO1; experiment: as above; assay type: cell-based; details: 37°C, 18 hours
Source text: as §1, §2, §3, §4, §5

[4] = system: Staphylococcus aureus ATCC 29213; experiment: as above; assay type: cell-based; details: 37°C, 18 hours
Source text: as §1, §2, §3, §4, §5

[5] = system: Staphylococcus aureus Methicillin resistant (MRSA) ATCC 43300; experiment: as above; assay type: cell-based; details: 37°C, 18 hours
Source text: as §1, §2, §3, §4, §5

[6] = system: Pseudomonas aeruginosa ATCC 27853; details: Publicly-known data, CLSI(M100-S16)2006 liquid dilution method; cited from earlier work
[7] = system: Escherichia coli ATCC 25922; details: Publicly-known data, CLSI(M100-S16)2006 liquid dilution method; cited from earlier work
[8] = system: Staphylococcus aureus ATCC 29213; details: Publicly-known data, CLSI(M100-S16)2006 liquid dilution method; cited from earlier work
[9] = system: Pseudomonas aeruginosa (gfp expression PAO1-strain); experiment: Evaluation test for biofilm formation inhibition effect against Pseudomonas aeruginosa (flow cell system, fluorescence confocal microscope); assay type: cell-based; details: test liquid 100µM; observed up to 84 hours; compared with control test liquid (huge, thick biofilm)
Method: With the flow cell system shown in FIG. 1, an inhibitory effect against biofilm formation by Pseudomonas aeruginosa was evaluated for each of the amide compounds produced in Production Examples 1, 3, 5, 6 and 7 (Compounds 1a-1, 1b-1, 1c-1, 1c-2, 1d-1), and for each of Comparative Compounds (Comparative Example) 1 to 3 denoted by the following formulas. [drawing 20] [drawing 21] [drawing 22]
A culture medium bottle (1), a peristaltic pump (2), a glass cell (4) and a waste fluid bottle (5) are connected via a silicon tube (6) so that a culture medium (9) is supplied to the glass cell (4) from the culture medium bottle (1) using the peristaltic pump (2). The system includes an air removal section (3) between the peristaltic pump (2) and a turncock (7a), for removing the entrained air. All instruments in the flow cell system are sterilized using gamma-rays or an autoclave.
As specifically described later, the inhibitory effect against biofilm formation of each of the amide compounds is examined in the following manner.. Bacteria are cultured in a glass cell (4) to grow a biofilm on the inner wall of the cell, and a test liquid containing one of the amide compounds is applied to the biofilm. Then the state of the biofilm is observed to evaluate the inhibitory effect against biofilm formation of the compound using a fluorescence confocal microscope (Leica TCS SP2: product of Leica). […]

[10] = system: Porphyromonas gingivalis 381-strain (clinical strain); experiment: Evaluation test for biofilm formation inhibition effect against periodontitis pathogenic bacteria (flow cell system, HA disks, turbidity); assay type: cell-based; details: Porphyromonas gingivalis, 336 h; 100µM; 14 days; relative to control test liquid (Mean Comparison OD Value); read-out: Biofilm Formation Inhibition Rate(%)
Method: As with Experiment Example 1, using the flow cell system of FIG. 1, an inhibitory effect against biofilm formation by periodontitis pathogenic bacteria was evaluated for each of the amide compounds produced in Production Examples 1, 3, 5, and 6 (Compounds 1a-1, 1b-1, 1c-1, 1c-2).
Periodontitis pathogenic bacteria Porphyromonas gingivalis 381-strain (clinical strain) was used..
A GAM culture medium containing hemin 5µg/L and menadione 1µg/L was used.
The 381-strain was inoculated in the GAM culture medium, and cultivated until stationary phase (OD550=1.8). Then the culture medium was diluted 20-fold by a fresh GAM culture medium containing the above-mentioned substances.
The test liquid was prepared by dissolving 100µM of each of the Compounds 1a-1, 1b-1, 1c-1, or 1c-2 according to Production Examples 1, 3, 5 and 6 and 100µM of Comparative Compounds 1 and 2 as comparative examples in dimethyl sulfoxide (DMSO), and supplying the resulting DMSO solutions to the above-mentioned bacterial suspensions so that the concentration of each compound becomes 0.1%(v/v).
A DMSO not containing the compound was used as a control test liquid.
The glass cell (4) of the flow cell system (see FIG. 1) was replaced with a stainless cell (3 x 7 x 120mm), and 10 hydroxyapatite (HA) disks (6mm in diameter, 1mm in thickness) were placed in the cell. The HA disks had been subjected to salivary treatment overnight. Each of the test liquids and control test liquids was circulated in the system at a flow rate of 8mL/min for 14 days, Note that the test liquids and the control test liquids were replaced with fresh liquids every two days.
After the cultivation, the HA disks were dipped in 300µL of sterile distilled water, and treated by supersonic wave for 30 minutes at 4°C, The biofilms formed in the HA disks were peeled off and suspended in distilled water. Then, 100µL of the suspension liquid was measured for the turbidity with an absorptiometer (C07500 colorimeter, product of Funakoshi) (measurement wavelength = 550 nm).
A mean OD was found based on the resulting OD values, excluding the minimum and maximum values, Also, a mean value of the turbidities for the Control Test Liquids was found in the same manner as the control mean OD value. A biofilm formation inhibition rate (Inhibition Rate) was found by the following formula. Biofilm Formation Inhibition Rate (%) = […] [formula]

[11] = ATCC25922, I (Intermediate): concentration that cannot be measured visually, read-out: MIC (µg/mL) I
[12] = ATCC25922, R (Resistant): concentration that caused less than 80% reduction in diameter of the aggregation, read-out: MIC (µg/mL) R
[13] = ATCC25922, S (susceptible): concentration which caused 80% or more reduction in diameter of the aggregation, read-out: MIC (µg/mL) S
[14] = ATCC27853, I (Intermediate): concentration that cannot be measured visually, read-out: MIC (µg/mL) I
[15] = ATCC27853, R (Resistant): concentration that caused less than 80% reduction in diameter of the aggregation, read-out: MIC (µg/mL) R
[16] = ATCC27853, S (susceptible): concentration which caused 80% or more reduction in diameter of the aggregation, read-out: MIC (µg/mL) S
[17] = PAO1, I (Intermediate): concentration that cannot be measured visually, read-out: MIC (µg/mL) I
[18] = PAO1, R (Resistant): concentration that caused less than 80% reduction in diameter of the aggregation, read-out: MIC (µg/mL) R
[19] = PAO1, S (susceptible): concentration which caused 80% or more reduction in diameter of the aggregation, read-out: MIC (µg/mL) S
[20] = ATCC29213, I (Intermediate): concentration that cannot be measured visually, read-out: MIC (µg/mL) I
[21] = ATCC29213, R (Resistant): concentration that caused less than 80% reduction in diameter of the aggregation, read-out: MIC (µg/mL) R
[22] = ATCC29213, S (susceptible): concentration which caused 80% or more reduction in diameter of the aggregation, read-out: MIC (µg/mL) S
[23] = I (Intermediate): concentration that cannot be measured visually, read-out: MIC (µg/mL) I
[24] = R (Resistant): concentration that caused less than 80% reduction in diameter of the aggregation, read-out: MIC (µg/mL) R
[25] = S (susceptible): concentration which caused 80% or more reduction in diameter of the aggregation, read-out: MIC (µg/mL) S

SMILES	MIC [1, 11] [µg/mL]	MIC [1, 12] [µg/mL]	MIC [1, 13] [µg/mL]	MIC [2, 14] [µg/mL]	MIC [2, 15] [µg/mL]	MIC [2, 16] [µg/mL]	MIC [3, 17] [µg/mL]	MIC [3, 18] [µg/mL]	MIC [3, 19] [µg/mL]	MIC [4, 20] [µg/mL]	MIC [4, 21] [µg/mL]	MIC [4, 22] [µg/mL]	MIC [5, 23] [µg/mL]	MIC [5, 24] [µg/mL]	MIC [5, 25] [µg/mL]	MIC (µg/mL) from M100-S16 [6] [µg/mL]	MIC (µg/mL) from M100-S16 [7] [µg/mL]	MIC (µg/mL) from M100-S16 [8] [µg/mL]	state of biofilm formation [9]	inhibition at 100 µM [10] [%]
CC(C)(O/N=C(\C(=O)N[C@@H]1C(=O)N2C(C(=O)[O-])=C(C[n+]3ccccc3)CS[C@H]12)c1csc(N)n1)C(=O)O [CAZ, Ceftazidime]	0.125 (≈ 0.229 µM)	≤ 0.063	≥ 0.25	2 (≈ 3.66 µM)	≤ 1	≥ 4	1 (≈ 1.83 µM)	≤ 0.5	≥ 2	4 (≈ 7.32 µM)	≤ 2	≥ 8	8 (≈ 14.6 µM)	≤ 4	≥ 16	1 to 4	0.06 to 0.5	4 to 16	–	–
CCCCCCCCCC(=O)CC(=O)Nc1ccccc1O [Comparative Compound 1]	–	–	–	–	–	–	–	–	–	–	–	–	–	–	–	–	–	–	the huge, thick biofilm was observed as in the control test	-36
CCCCCCCCCCCC(=O)NN1CCCCC1 [Compound 1d-1, N-(piperidin-1-yl) dodecanoyl amide]	–	–	–	–	–	–	–	–	–	–	–	–	–	–	–	–	–	–	such biofilm formation was not observed	–
NC[C@H]1O[C@H](O[C@H]2[C@H](O)[C@@H](O[C@H]3O[C@H](CO)[C@@H](O)[C@H](N)[C@H]3O)[C@H](N)C[C@@H]2N)[C@H](N)C[C@@H]1O [TOB, Tobramycin]	0.5 (≈ 1.07 µM)	≤ 0.25	≥ 1	0.5 (≈ 1.07 µM)	≤ 0.25	≥ 1	0.5 (≈ 1.07 µM)	≤ 0.25	> 1	0.25 (≈ 0.535 µM)	≤ 0.125	≥ 0.5	128 (≈ 274 µM)	≤ 64	≥ 256	0.25 to 1	0.25 to 1	0.12 to 1	–	–
